Test results reported in US20240277695A1, “FOXO INHIBITORS FOR USE IN THE TREATMENT OF DISEASES CAUSED BY ABNORMAL PROCESSING OF TDP-43 AND/OR FUS PROTEINS” (Administración General de la Comunidad Autónoma de Euskadi, priority 2020, published 2024).
Entries after “also recorded” stand apart in the source; their conditions may differ.

What was measured:
[1] = test system: Caz or Tbph-silenced flies; assay: Longevity assay in flies with muscle-conditioned silencing of Caz or Tbph; assay type: in vivo, Drosophila melanogaster; conditions: 30 μM, particularly iCaz and iTbph^attp40
Description: (§1) FIG. 7. Foxo inhibition improves muscle function and lifespan in Drosophila flies with muscle-conditioned deficiency of TDP-43 or FUS. […] F, Caz or Tbph-silenced flies have reduced survival times, as indicated by Kaplan-Meier curves (left panel) and median lifespan (right panel) (n=100 flies per group). […] This effect was particularly noticeable in iCaz and iTbph^attp40) fly lines (n=100 flies per group). *p<0.05: **p<0.01, ***p<0.001.
We performed longevity assays to further characterize these fly models. Either of the Caz or Tbph-silenced flies manifested dramatic reductions of survival times when compared to control group, as indicated by Kaplan-Meier curves and median lifespan (FIG. 7F). […] This effect was particularly noticeable in iCaz and iTbph^attp40 fly lines (FIG. 7G).

[2] = test system: Drosophila flies with muscle-conditioned silencing of Caz or Tbph; assay: Climbing (locomotor activity) test in flies with muscle-conditioned silencing of Caz or Tbph; assay type: in vivo, Drosophila melanogaster; conditions: 30 μM; Caz- and Tbph-silenced flies; more pronounced in Tbph lines
Description: as §1
(§2) After knowing that FoxO inhibition provides benefits to muscle cells in vitro, we wanted to further test the effects of targeting FoxO factors on muscle function under the context of TDP-43 or FUS loss-of-function in vivo. To that purpose, we generated various Drosophilamodels with muscle-conditioned silencing of either Cabeza (Caz) or Tbph genes, which are orthologs of human FUS or TARDBP, respectively. […] Drosophila has only one ortholog for mammalian FoxO factors, which is called foxo. Although the affinity of AS1842856 for Drosophila foxo has never been tested, the fact that FoxO DNA-binding sites, with which the inhibitor interacts, are well conserved among species, including Drosophila melanogaster (FIG. 7B) provides enough rationale to test its efficacy in Drosophila models.

primary ALS myoblasts = assay: Glycolytic flux (ECAR) of primary ALS myoblasts; assay type: cell-based, human
Description: (§3) We looked at preliminary links between the findings in genetically-induced myoblasts and features of myoblasts from patients with ALS. To this aim, we cultured primary myoblasts obtained from muscle biopsies of two patients with ALS (patient 1 is sporadic [sALS] and patient 2 is familial [fALS]) and one control. […] Changes in TDP-43 localization were accompanied by an altered subcellular distribution of FoxO1, as reflected by increased levels of FoxO1 and FoxO3 in nuclei (FIG. 6A,C) and enhanced nuclear-to-cytosolic ratio in both patients (FIG. 6C). Remarkably, nuclear localizations of TDP-43 and FoxO1 were inversely associated in patient 2 (FIG. 6D).
As expected, alterations of FoxO1 in ALS myoblasts were accompanied by aberrant glycolytic flux, as indicated by lower ECAR values after addition of glucose to the media (FIG. 6F).

MYOD = MYOD expression in silenced myoblasts; assay type: cell-based, human; conditions: 30 nM; shTDP-43 and shFUS-treated myoblasts
Description: Myoblasts treated with control shRNA differentiated and formed MYHC-positive myotubes 2 days after reaching 100% confluence (FIG. 1I). However, TDP-43 and FUS knockdown affected the natural capacity of cultured myoblasts to fuse and form myotubes: shTDP-43-treated myoblasts remained undifferentiated for at least 2 days after reaching 100% confluence, and shFUS-treated myoblasts formed fewer myotubes (FIG. 1I). […] We then analyzed levels of MYOD and MYOG (Myogenin), two transcription factors that are required for myoblast commitment, differentiation and fusion, respectively.
In addition, treatment with the AS1842856 inhibitor modifies the expression of some of the FoxO-regulated genes that are crucial for proper myogenic differentiation.

[3] = test system: control Drosophila strain UAS-Dicer2-+-Mef2-GAL4; assay: Climbing assay and lifespan of treated control flies; assay type: in vivo, Drosophila melanogaster; conditions: 30 μM
Description: as §1, §2

[4] = test system: shTDP-43-treated myoblasts; assay: Glu/Asp and Glu/Gln metabolite ratios by HPLC-MS and 1H-NMR in silenced myoblasts; assay type: cell-based, human; conditions: 30 nM
Description: One of the key endogenous factors that keep glycolytic flux ongoing is cytosolic NAD^+. In anaerobic muscles, malate-aspartate and glycerol-phosphate shuttles as well as glutaminolysis are main metabolic pathways that recycle cytosolic NAD+to support glycolysis (FIG. 3A). […] With respect malate-aspartate shuttle and glutaminolysis, TDP-43 silencing led to reduced levels of OGC1 (oxoglutarate carrier 1), GOT1 (glutamic-oxaloacetic transaminase), MDH1 (malate dehydrogenase), and ME1 (malic enzyme), but increased levels of glutaminase (FIG. 3B). […] We have also analyzed intermediate metabolites of malate-aspartate shuttle and glutaminolysis, including glutamate (Glu), glutamine (Gln) and aspartate (Asp), by means of HPLC-MS and ^1H-NMR, and calculated the ratios Glu/Asp and Glu/Gln to estimate fluxes of these reactions. […] In this sense, an abnormal glutaminolysis may account for the defects of NAD^+ recycling in FUS-silenced myoblasts.
We next explored the consequences of pharmacological or genetic inhibition of FoxO on metabolism and myogenesis in TDP-43 and FUS-silenced myoblasts. We treated all the different models of myoblasts with the compound AS1842856 at 30 nM during proliferation and let them differentiate, adding the compound at the same concentration every 2 days for 8 days. […]

[5] = test system: iTbph^pkk(108254) Drosophila model; assay: Adult pharate lethality / pupa eclosion assay; assay type: in vivo; conditions: 30 μM
Method: FIG. 8. […] A) Number of total pupas and the eclosioned ones were counted in different 5 tubes each group. […] T-test was performed ***p<0,001. Values are expressed as percentage mean+SD.
As mentioned in Example 6, iTbph^pkk(108254) Drosophila completed the metamorphosis from larvae to adult within the pupa (a phase known as pharate), but were not able to eclode from the pupa and, consequently, died. This feature is termed as adult pharate lethality and allowed us to perform assays with which to judge the efficacy of FoxO inhibition.

[6] = test system: primary myoblasts from patients with ALS; assay: Myogenic capacity of primary myoblasts from patients with ALS; assay type: cell-based, human; conditions: 30 nM; primary myoblasts from sporadic and familial ALS patients
Description: as §3
To study whether these pathological features were linked to functional outcomes of ALS muscle, we studied the myogenic capacity of ALS myoblasts and the effect of FoxO inhibition.

With `CCn1cc(C(=O)O)c(=O)c2c(N)c(F)c(NC3CCCCC3)cc21` [AS1842856] the “survival (Kaplan-Meier, median lifespan)” value [1] was “higher survival rates”, the “muscle function (climbing activity)” value [2] was “strong benefits on muscle function” and the “basal glycolysis rate (ECAR after glucose)” value (primary ALS myoblasts) was “corrected; also recorded: improved the basal glycolysis rate”. For the same compound, the “expression of MYOD” value (MYOD) was “increased the expression of MYOD”, the toxicity on lifespan [3] was “lack of toxicity” and the “toxicity on motor function” value [3] was “lack of toxicity”. The Glu/Asp ratio [4] was “increase Glu/Asp ratio to the levels of control myoblasts”, the Glu/Gln ratio [4] was “without affecting Glu/Gln ratio” and the “eclosion efficiency of pupas” value ([5]; UAS-Dicer2-iTbph^pkk(108254)-Mef2-GAL4) was “significantly ameliorates”. The “pharate lethality in control flies” value ([5]; control flies) was “did not produce pharate lethality”, the “mitigation of pharate lethality” value ([5]; iTbph^pkk(108254) Drosophila) was “approximately 20%” and the myogenic abnormalities [6] was “alleviated”.
